Data published in US11247976B2, “Synthetic ligands that modulate the activity of the RhlR quorum sensing receptor” (Wisconsin Alumni Research Foundation, priority 2016, dated 2022).

What was measured:
[1] = molecular target: T1, RhlR (Pseudomonas aeruginosa, UniProt P54292); test: P. aeruginosa RhlR reporter antagonism assay vs 10 μM BHL (PAO-JP2/prhlI-LVAgfp); format: cell-based
T1 construct: expressed in transfected cells; host or cells: E. coli JLD271 (ΔsdiA) with pJN105R2 (arabinose-induced) and pSC11-rhlI*
T1 sequence (P54292 whole entry): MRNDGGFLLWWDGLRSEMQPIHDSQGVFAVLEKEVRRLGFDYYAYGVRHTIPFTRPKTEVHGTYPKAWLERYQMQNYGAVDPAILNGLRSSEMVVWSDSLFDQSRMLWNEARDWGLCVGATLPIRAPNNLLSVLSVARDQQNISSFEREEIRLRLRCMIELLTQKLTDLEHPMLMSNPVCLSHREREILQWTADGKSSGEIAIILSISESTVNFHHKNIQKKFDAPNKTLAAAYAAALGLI
Method: FIGS. 10A and B illustrate exemplary dose-response curves for RhlR antagonism in the E. coli JLD271/pJN105R2/pSC11-rhlI* reporter strain vs. 10 μM BHL (FIG. 10A) and in the P. aeruginosa PAO-JP2/prhlI-LVAgfp reporter strain vs. 10 μM BHL (FIG. 10B).
To evaluate the RhlR-modulatory activities of selected compounds in P. aeruginosa, the ΔlasIrhlI strain PAO-JP2 harboring plasmid prhlI-LVAgfp was used as previously reported.^38 Briefly, a subculture was prepared by diluting an overnight culture 1:100 in fresh LB and was grown to OD600=0.3. […] Subculture was treated with 100 nM OdDHL (to induce native expression of RhlR) by adding the appropriate amount of OdDHL stock solution in DMSO. The subculture was then dispensed ([…] aliquots) into each synthetic compound-containing well of the microtiter plate.
Plates were incubated at 37° C. for 6 h, and GFP production was monitored by using a Synergy 2 plate reader (λex=500 nm, λem=540 nm; BioTek, Winooski, Vt.) and quantified with Gen5 1.05 software (BioTek). The final OD600 for each well was measured to normalize GFP production to cell density. All synthetic compounds were tested in triplicate, and three separate trials were performed with unique cultures. Agonism dose-response analyses were performed by testing compounds over a range of concentrations with the RhlR reporter.

[2] = molecular target: T2, LasR (Pseudomonas aeruginosa, UniProt P25084); test: Selectivity of RhlR antagonism over LasR antagonism (E. coli LasR reporter, vs 2 nM OdDHL); format: cell-based, P. aeruginosa; settings: RhlR % antagonism divided by LasR % antagonism
T2 construct: expressed in transfected cells; host or cells: E. coli JLD271 (ΔsdiA) with pJN105L and pSC11
T2 sequence (P25084 whole entry): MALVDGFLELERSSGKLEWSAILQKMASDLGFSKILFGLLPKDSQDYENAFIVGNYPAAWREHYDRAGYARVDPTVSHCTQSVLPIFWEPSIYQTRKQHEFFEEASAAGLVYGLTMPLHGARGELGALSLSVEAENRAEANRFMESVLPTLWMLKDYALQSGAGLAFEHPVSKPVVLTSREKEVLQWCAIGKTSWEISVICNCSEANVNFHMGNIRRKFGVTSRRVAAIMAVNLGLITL
Method: All media and reagents for bacterial culture were purchased from commercial sources. Bacteria were cultured in Luria-Bertani broth (LB) at 37° C. with shaking at 200 rpm unless otherwise noted. The bacterial reporter strains used for this study were (i) the heterologous E. coli strain JLD271 (ΔsdiA) harboring the RhlR expression plasmid pJN105R2 and the rhlI-lacZ transcriptional fusion reporter pSC11-rhlI*, (ii) the heterologous E. coli strain JLD271 (ΔsdiA) harboring the LasR expression plasmid pJN105L and the […] transcriptional fusion reporter pSC11, and (iii) the P. aeruginosa strain PAO-JP2 (ΔlasrhlI) harboring the rhlI-gfp transcriptional fusion reporter prhlI-LVAgfp. […]
To evaluate the modulatory activities of library compounds on RhlR and LasR using E. coli reporters, the strains JLD271/pJN105R2/pSC11-rhlI* and JLD271/pJN105L/pSC11 were used, respectively, as previously described.^38, 51 The following modifications were used in the RhlR agonism reporter assay, non-native compounds (10 μM or 1 mM) were compared to 1 mM BHL as the positive control. […] For RhlR agonism assays, activities of test compounds were measured relative to 1 mM BHL (the concentration required to induce a maximal level of RhlR activity). […] Activity was measured relative to 10 μM BHL. Inhibition was calculated by subtracting 100% from the relative activity value. […]

[3] = Hydrolytic stability in buffers of varying pH by HPLC; format: physicochemical; settings: room temperature
Method: To assess the relative stability of the thiolactone and homoserine lactone moieties, stability studies were performed as reported previously,^53 with the following changes. Compounds RN22 and E22 (50 μM) were dissolved in either 1 mM 2-(N-morpholino)-ethanesulfonic acid (MES) buffer at pH 6, or 1 mM tris(hydroxymethyl)-aminomethane (TRIS) buffer at pH 7, pH 8, or pH 9. Solutions were placed static at room temperature, and 150 μL aliquots were taken every two hours for eight hours, then again at 24 hours. Samples were immediately separated via HPLC, and the area under the curve (AUC) at 220 nm was calculated and compared to the area at t=0. […] Degradation of both compounds to the hydrolysis product was confirmed via mass spectrometry of the resulting byproduct peak.
P. aeruginosa media is observed to become more alkaline over time, making the hydrolytic instability of the homoserine lactone head group a concern in developing AHL-type modulators for use in the wild-type organism. […] To evaluate their stability in a more direct assay, the stability of thiolactone RN22 relative to its lactone homolog E22 was monitored over time and at varying pH values using HPLC. The amount of compound RN22 remaining over 24 h was compared to E22. […] Degradation products were confirmed to be the hydrolyzed lactone head groups via mass spectroscopy.

O=C(COc1ccc(I)cc1)N[C@H]1CCSC1=O [RN22]
concentration blocking native ligand activity by 50%, relative to EC50 of native ligand ([1]; P. aeruginosa): less than 4 fold | RhlR antagonist activity in words ([1]; P. aeruginosa reporter vs 10 μM BHL): maintained its strong inhibitory profile | IC50 ([1]; P. aeruginosa reporter vs 10 μM BHL, read-out: IC50 for RhlR inhibition): 31 µM | Maximum Inhibition (%) ([1]; P. aeruginosa reporter, relative to activation of 10 μM BHL alone): 85% | Fold selectivity of RhlR antagonist over LasR antagonism ([2]; tested concentration 1 mM): 74 fold | Fold selectivity of RhlR antagonist over LasR antagonism ([2]; tested concentration 10 μm): 1.5 fold | half-life at 50 μM ([3]; pH 6, 1 mM MES buffer): 44 days | half-life at 50 μM ([3]; pH 7, 1 mM TRIS buffer): 47.2 days | half-life at 50 μM ([3]; pH 8, 1 mM TRIS buffer): 9.88 days | half-life at 50 μM ([3]; pH 9, 1 mM TRIS buffer): 2.18 days
